Reference: patent US8809536B2, “2,3-dihydrobenzo[1,4] dioxin-2-ylmethyl derivatives as alpha2C antagonists for use in the treatment of peripheric and central nervous system diseases” (Orion Corporation, priority 2007, dated 2014)

Tests used:
human alpha2A receptors = molecular target: T1, human alpha2A receptors (Homo sapiens, UniProt P08913); assay: Determination of alpha2A antagonistic activity in vitro (intracellular calcium, FLIPR Calcium 3 Assay, FLEXstation); format: cell-based; conditions: CHO cells stably transfected with human alpha2A receptor and Gα16; stimulated with 100 nM adrenaline or 200 nM noradrenaline
T1 construct: host or cells: CHO cells, cotransfected with expression vector pCEP-Galpha16
T1 sequence (P08913 1-465): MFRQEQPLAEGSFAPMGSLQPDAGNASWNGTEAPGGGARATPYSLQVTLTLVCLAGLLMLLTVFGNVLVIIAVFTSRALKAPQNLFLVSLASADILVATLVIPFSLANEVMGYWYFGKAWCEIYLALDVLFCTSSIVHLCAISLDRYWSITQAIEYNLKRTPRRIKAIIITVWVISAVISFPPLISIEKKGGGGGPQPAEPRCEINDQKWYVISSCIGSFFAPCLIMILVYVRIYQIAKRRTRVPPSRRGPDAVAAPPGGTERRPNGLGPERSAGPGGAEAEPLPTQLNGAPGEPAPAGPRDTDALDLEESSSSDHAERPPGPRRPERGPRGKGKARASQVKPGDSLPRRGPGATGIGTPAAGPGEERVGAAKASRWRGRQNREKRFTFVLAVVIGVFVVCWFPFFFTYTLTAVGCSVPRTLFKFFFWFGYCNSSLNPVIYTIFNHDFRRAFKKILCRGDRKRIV
Description: (§1) Chinese hamster ovary (CHO) cells stably transfected with human alpha2A and alpha2C or rodent alpha2D receptors (University of Turku, Finland) were cotransfected with the expression vector pCEP-Gα16 (Molecular Devices, CA, USA) and CHO cells stably transfected with human adrenergic alpha2B receptors and mitochondrially targeted aequorin (Euroscreen, Belgium) were used in this experiment. The cells were maintained at 37° C. in a 5% CO2/95% air atmosphere. The cells were cultured in HAM F-12 medium supplemented with 10% FCS, 25 mM HEPES, 100 IU/ml penicillin, 100 μg/ml streptomycin, 500 μg/ml geneticin and 240 μg/ml hygromycin B. The cells were subcultured twice weekly with 0.25% trypsin and 1 mM EDTA. The subculture ratio was 1:5-1:20. The growth medium was changed every 2 or 3 days. All cell culture reagents were from Gibco. The day before the experiment the cells were plated into black-walled, clear bottom 96-well plates at a density of 30,000-45,000 cells/well.
(§2) The growth medium was removed and the cells were incubated with the test compounds and the FLIPR Calcium 3 Assay reagent (Molecular Devices, CA, USA) for 1 h at 37° C. in dark. The test compounds (concentrations in cells 100 pM-10 μM) were dissolved in Probenecid-Ringer consisting of 150 mM NaCl, 3 mM KCl, 1.2 mM MgCl2, 1 mM CaCl2, 5 mM glucose, 20 mM HEPES and 2.5 mM probenecid (pH 7.4 adjusted with 1.0 M NaOH). The osmolarity was adjusted to 322 milliosmoles with Osmostat® OM-6020 osmometer (DIC Kyoto Daiichi Kagagu Co. Ltd, Japan). […] All experiments were performed at 37° C. The test compounds dissolved in Probenecid-Ringer were applied by FLEX station at 17 s time point. […] In order to determine antagonism, the cells were stimulated either with 100 nM adrenaline or 200 nM noradrenaline and the test compounds were added to the cells at least 5 min before the experiment. Typically, there were four replicates at each concentration and seven different dose levels. For example, if the number of plates from which results were obtained was three, 84 (4*7*3) wells were thus measured to construct dose-response relationship. The samples were excited at 485 nm and emission was detected at 525 nm with a 515 nm cut-off filter. Reading time was 60 s per well and the photomultiplier sensitivity value was set to 15. The minimum fluorescence value subtracted from the maximum value for each well was used in the calculations. SOFTmax PRO version 3.2 software was used for analyzing the results. Fitting of the antagonist dose-response results was performed with the free Hill equation and the IC50 values were fitted with Michaelis-Menten equation in Sigma Plot 8.0.

human alpha2C receptors = molecular target: T2, human alpha2C receptors (Homo sapiens, UniProt P18825); assay: Determination of alpha2C antagonistic activity in vitro (intracellular calcium, FLIPR Calcium 3 Assay, FLEXstation); format: cell-based; conditions: CHO cells stably transfected with human alpha2C receptor and Gα16; stimulated with 100 nM adrenaline or 200 nM noradrenaline
T2 construct: host or cells: CHO cells, cotransfected with expression vector pCEP-Galpha16
T2 sequence (P18825 1-462): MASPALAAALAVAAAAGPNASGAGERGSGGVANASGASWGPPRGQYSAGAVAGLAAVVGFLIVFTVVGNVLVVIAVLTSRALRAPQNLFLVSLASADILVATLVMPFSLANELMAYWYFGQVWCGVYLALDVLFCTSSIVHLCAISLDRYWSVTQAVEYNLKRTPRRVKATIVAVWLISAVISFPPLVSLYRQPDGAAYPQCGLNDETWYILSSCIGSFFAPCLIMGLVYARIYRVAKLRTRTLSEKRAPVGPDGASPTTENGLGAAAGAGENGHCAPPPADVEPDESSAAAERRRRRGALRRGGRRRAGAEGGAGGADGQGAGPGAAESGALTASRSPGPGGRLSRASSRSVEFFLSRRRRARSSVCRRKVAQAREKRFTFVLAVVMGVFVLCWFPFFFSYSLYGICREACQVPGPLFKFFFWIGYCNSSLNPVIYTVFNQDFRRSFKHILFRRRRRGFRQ
Description: as §1, §2

Row | Compound | IC50 (human alpha2A receptors) [nM] | IC50 (human alpha2C receptors) [nM]
1 | Fc1ccc(C2CCCN(C[C@H]3COc4ccccc4O3)C2)cc1 (stereo in doubt) [Example 18, (R*)-1-[(S)-1-(2,3-Dihydrobenzo[1,4]dioxin-2-yl)methyl]-3-(4-fluorophenyl)piperidine] | > 10000 | 69.5
2 | OCc1cccc(C2CCCN(C[C@H]3COc4ccccc4O3)C2)c1 (stereo in doubt) [Example 29, (3-{(R*)-1-[(S)-1-(2,3-Dihydrobenzo[1,4]dioxin-2-yl)methyl]piperidin-3-yl}phenyl)methanol] | 4360 | 5.4
3 | c1ccc(C2CCCN(CC3COc4ccccc4O3)C2)cc1 (stereo not drawn) [Example 2, 1-(2,3-Dihydrobenzo[1,4]dioxin-2-ylmethyl)-3-phenylpiperidine] | 3780 | 11.4
4 | c1ccc2c(c1)OCC(CN1CCC3CCCCC3C1)O2 (stereo not drawn) [Example 48, 2-(2,3-Dihydrobenzo[1,4]dioxin-2-ylmethyl)decahydroisoquinoline] | 1470 | 7.4
5 | CC1(COS(C)(=O)=O)CCCN(CC2COc3ccccc3O2)C1 (stereo not drawn) [Example 61, Methanesulfonic acid 1-(2,3-dihydrobenzo[1,4]dioxin-2-ylmethyl)-3-methylpiperidin-3-ylmethyl ester] | 2870 | 2.4
6 | CCC1(COC)CCCN(CC2COc3ccccc3O2)C1 (stereo not drawn) [Example 63, 1-(2,3-Dihydrobenzo[1,4]dioxin-2-ylmethyl)-3-ethyl-3-methoxymethylpiperidine] | 2730 | 0.8
7 | C=CCOCC1(C)CCCN(CC2COc3ccccc3O2)C1 (stereo not drawn) [Example 69, 3-Allyloxymethyl-1-(2,3-dihydrobenzo[1,4]dioxin-2-ylmethyl)-3-methyl-piperidine] | 1290 | 1.7
8 | C[C@]1(C(=O)O)CCCN(C[C@H]2COc3ccccc3O2)C1 [Example 86, Lithium (S)-1-[(S)-1-(2,3-dihydrobenzo[1,4]dioxin-2-yl)methyl]-3-methyl-piperidine-3-carboxylate] | 8420 | 10.7
9 | C[C@]1(COCCO)CCCN(C[C@H]2COc3ccccc3O2)C1 [Example 89, 2-{(S)-1-[(S)-1-(2,3-Dihydrobenzo[1,4]dioxin-2-yl)methyl]-3-methylpiperidin-3-ylmethoxy}-ethanol D-tartrate] | 2140 | 0.6
10 | C[C@]1(COCC(=O)O)CCCN(C[C@H]2COc3ccccc3O2)C1 [Example 96, Sodium {(S)-1-[(S)-1-(2,3-dihydrobenzo[1,4]dioxin-2-yl)methyl]-3-methylpiperidin-3-yl-methoxy}acetate] | 5440 | 4.6

Stronger by IC50 (human alpha2A receptors), values ahead:

Row | IC50 (human alpha2A receptors) [nM] | IC50 (human alpha2C receptors) [nM] | Compound
11 | 374 | 19.6 | Oc1ccccc1C1CCCN(CC2COc3ccccc3O2)C1 (stereo not drawn) [Example 12, 2-[1-(2,3-Dihydrobenzo[1,4]dioxin-2-ylmethyl)piperidin-3-yl]phenol]
12 | 776 | 9.5 | COC(C)(C)C1(C)CCCN(CC2COc3ccccc3O2)C1 (stereo not drawn) [Example 58, 1-(2,3-Dihydrobenzo[1,4]dioxin-2-ylmethyl)-3-(1-methoxy-1-methylethyl)-3-methylpiperidine]
13 | 1150 | 1.1 | C=CCC1(CO)CCCN(CC2COc3ccccc3O2)C1 (stereo not drawn) [Example 71, [3-Allyl-1-(2,3-dihydrobenzo[1,4]dioxin-2-ylmethyl)piperidin-3-yl]methanol]
14 | 635 | 0.9 | C=CCC1(COC)CCCN(CC2COc3ccccc3O2)C1 (stereo not drawn) [Example 72, 3-Allyl-1-(2,3-dihydrobenzo[1,4]dioxin-2-ylmethyl)-3-methoxymethylpiperidine]
15 | 346 | 7.4 | CC1(COCC(F)(F)F)CCCN(CC2COc3ccccc3O2)C1 (stereo not drawn) [Example 74, 1-(2,3-Dihydrobenzo[1,4]dioxin-2-ylmethyl)-3-methyl-3-(2,2,2-trifluoroethoxymethyl)-piperidine]
